Source: US20060122153A1, “Antineoplastic ether lipid compounds with modifications at the sn-2 carbon” (priority 2003, published 2006)
Entries after “also recorded” stand apart in the source; their conditions may differ.

Assays:
whole human blood = experiment: Hemolysis assay with whole human blood; details: whole human blood; for H10: concentration producing 10% hemolysis; for H50: concentration producing 50% hemolysis
Description: Venous blood was collected in 10 mL Vacutainer tubes containing EDTA using a 21G needle or larger.
Stock solutions of 20 mM test sample in phosphate buffered saline (PBS) were prepared as follows:
Then 270 uL of whole blood was aliquotted in duplicate mini test tubes using positive displacement pipet. Next, 30 uL of each working stock solution, in duplicate, was added to the whole blood. Next, 30 uL of PBS was added for background control. The samples were capped or sealed with Parafilm and gently mixed. The blood was incubated at 37° C. in gentle rotating water bath for 30 minutes. Final concentration of test sample was 10% of working stock solution.
Total hemolysis samples of 1,% and 10% whole blood samples in deionized water were prepared as follows:
The samples were freeze thawed 3× in liquid nitrogen then wafer bath. The samples were then centrifuged 10 minutes at 1500 RPM. Next, 100 uL of supernatant was transferred to a cuvette and 1 mL deionized water was added. The absorbance was read at 550 nm vs. water blank.
H10 and H50 were calculated by graphing Percent Total Hemolysis vs. Test Sample Concentration. The Percent Total Henolysis=(average o.d of test sample)/(average o.d. of total hemolysis sample)×100

[1] = tested on: DEVDase activity (Caspase 3) in U937 cell line; experiment: DEVDase activity in U937 cell line; type: cell-based, human
Description: Suspension cells were seeded at density 3.2×10^5 cells per mL in RPMI-1640 medium (Bio-Whittaker) supplemented with 10% heat inactivated FBS (Bio-Whittaker). Cells were pre-incubated overnight prior to treatment with the ether lipid compounds of the invention. At treatment time cell density was 5×10^5 cells per mL. Cells were incubated with the ether lipid compounds of the invention for various periods of time, usually 6 hours. Cells were collected, washed with 1×DPBS and resuspended in 110 μl of Buffer A (10 mM BEPES-KOH, pH 7.4, 2 mM EDTA, 0.1% CHAPS, 5 mM DTT, 1:100 dilution of protease inhibitors cocktail (Sigma)-DTT and protease inhibitors should be added just before use). […]
Measurement of DEVDase activity was carried out in 100 μl volume, where 10 μg of protein was delivered in 50 μl of Buffer A and 40 μM of substrate Ac-DEVD-AMC was also delivered in 50 μl of Buffer A. All measurements were done in triplicates. Reaction was carried out for 1 hour and generation of fluorescent product of reaction (aminomethylcoumarin) was measured by reading fluorescence at 1em 460 nm (1ex 360 nm). Changes in DEVDase activity were calculated after subtraction of background fluorescence of substrate incubated without proteins, and were expressed as percent of control (DEVDase activity in untreated cells). […]

A-549/ATCC = experiment: NCI growth inhibition screen, non-small cell lung panel; type: cell-based, human; parameters: key: = means equivalent activity; + means that it appears to be significantly better (i.e., by ˜2x); < means it appears to be less active than ET18OCH3 (˜2x); a combination like =/+ or </+ means that activity is dependent upon the isomer; a combination like =/+ or </+ means that activity is dependent upon the isomer; details: NS cell lung, from GI50s
Description: (§1) Candidates deemed suitable for in vivo testing were then synthesized in large scale quantities and some of this material was sent to the NCI's Developmental Therapeutics Program for a battery of growth inhibitory studies against various human tumor cell lines (60 cell lines, 9 different panels). The remainder of the material was used to assess in vivo efficacy using murine tumor models. Additionally, studies were conducted on the lead candidates to discern mechanism of action with particular emphasis on these agents apoptotic ability as measured by caspase 3 activity. The details (materials and methods) for these various assays are described further in the following discussion.
(§2) Ten compounds were also sent to NCI's Drug Discovery Program for screening against numerous human tumor cell lines (9 panels total: renal ovarian, colon, CNS, non-small cell lung, leukemia, breast, melanoma, and prostate). The data are shown in FIGS. 2a-i which also include data regarding D- and L-ET-18-OCH3 (listed as L-EL and D-EL in the figures). Upon examining the data, one is struck by how 1R and 1a′S standout in comparison to the other compounds, especially for the renal, ovarian, colon, and CNS panels.

EKVX = experiment: as above; type: cell-based, human; parameters: key: = means equivalent activity; + means that it appears to be significantly better (i.e., by ˜2x); < means it appears to be less active than ET18OCH3 (˜2x); a combination like =/+ or </+ means that activity is dependent upon the isomer; a combination like =/+ or </+ means that activity is dependent upon the isomer; details: NS cell lung, from GI50s
Description: as §1, §2

HOP-92 = experiment: as above; type: cell-based, human; parameters: key: = means equivalent activity; + means that it appears to be significantly better (i.e., by ˜2x); < means it appears to be less active than ET18OCH3 (˜2x); a combination like =/+ or </+ means that activity is dependent upon the isomer; a combination like =/+ or </+ means that activity is dependent upon the isomer; details: HOP-92, NS cell lung; from GI50s
Description: as §1, §2

NCI-H23 = experiment: as above; type: cell-based, human; parameters: key: = means equivalent activity; + means that it appears to be significantly better (i.e., by ˜2x); < means it appears to be less active than ET18OCH3 (˜2x); a combination like =/+ or </+ means that activity is dependent upon the isomer; a combination like =/+ or </+ means that activity is dependent upon the isomer; details: NCI-H23, NS cell lung; from GI50s
Description: as §1, §2

NCI-H332M = experiment: as above; type: cell-based, human; parameters: key: = means equivalent activity; + means that it appears to be significantly better (i.e., by ˜2x); < means it appears to be less active than ET18OCH3 (˜2x); a combination like =/+ or </+ means that activity is dependent upon the isomer; a combination like =/+ or </+ means that activity is dependent upon the isomer; details: NS cell lung, from GI50s
Description: as §1, §2

NCI-H460 = experiment: as above; type: cell-based, human; parameters: key: = means equivalent activity; + means that it appears to be significantly better (i.e., by ˜2x); < means it appears to be less active than ET18OCH3 (˜2x); a combination like =/+ or </+ means that activity is dependent upon the isomer; a combination like =/+ or </+ means that activity is dependent upon the isomer; details: NCI-H460, NS cell lung; from GI50s
Description: as §1, §2

Compound | H10 (whole human blood) | H50 (whole human blood) | DEVDase activity compared to ET-18-OCH3 (in words) [1] | Performance as compared to ET-18-O—CH3 (A-549/ATCC) | Performance as compared to ET-18-O—CH3 (EKVX) | Performance as compared to ET-18-O—CH3 (HOP-92) | Performance as compared to ET-18-O—CH3 (NCI-H23) | Performance as compared to ET-18-O—CH3 (NCI-H332M) | Performance as compared to ET-18-O—CH3 (NCI-H460)
CCCCCCCCCCCCCCCCCCOC[C@@H](COP(=O)([O-])OCC[N+](C)(C)C)OS(C)(=O)=O [1a′S] | 800 µM | >2000 µM | equivalent to ET-18-OCH3; also recorded: more active than 1aR | 0 | 0 | 0 | 0 | 0 | 0
CCCCCCCCCCCCCCCCCCOCC(COP(=O)([O-])OCC[N+](C)(C)C)OS(C)(=O)=O (stereo not drawn) [Compound 1aR] | 1000 µM | >2000 µM | equivalent to ET-18-OCH3 | = | = | = | = | = | =
